Results reported in ChEMBL document CHEMBL1212704, “Structural and biochemical evidence for a boat-like transition state in beta-mannosidases” (Nat Chem Biol, 2008).

Assays:
[1] = Inhibition of wild type Bacteroides thetaiotaomicron beta-mannosidase 2A expressed in Escherichia coli BL21 (DE3) at 37 degC and Ph 5.6 by 2,4-dinitrophenolate release assay
Beta-mannosidase [2] = target: Beta-mannosidase (Bacteroides thetaiotaomicron (strain ATCC 29148 / DSM 2079 / NCTC10582 / E50 / VPI-5482), UniProt Q8AAK6, W645A)
Beta-mannosidase [3] = target: Beta-mannosidase (Bacteroides thetaiotaomicron (strain ATCC 29148 / DSM 2079 / NCTC10582 / E50 / VPI-5482), UniProt Q8AAK6, Y537A)
Beta-mannosidase [4] = target: Beta-mannosidase (Bacteroides thetaiotaomicron (strain ATCC 29148 / DSM 2079 / NCTC10582 / E50 / VPI-5482), UniProt Q8AAK6, W198G)
Beta-mannosidase [5] = target: Beta-mannosidase (Bacteroides thetaiotaomicron (strain ATCC 29148 / DSM 2079 / NCTC10582 / E50 / VPI-5482), UniProt Q8AAK6, Q646A)
Beta-mannosidase [6] = target: Beta-mannosidase (Bacteroides thetaiotaomicron (strain ATCC 29148 / DSM 2079 / NCTC10582 / E50 / VPI-5482), UniProt Q8AAK6, N461A)
Beta-mannosidase [7] = target: Beta-mannosidase (Bacteroides thetaiotaomicron (strain ATCC 29148 / DSM 2079 / NCTC10582 / E50 / VPI-5482), UniProt Q8AAK6, W395A)
[8] = Inhibition of Thermotoga maritima Beta-glucosidase GH1

Chain of Beta-mannosidase (Bacteroides thetaiotaomicron (strain ATCC 29148 / DSM 2079 / NCTC10582 / E50 / VPI-5482), UniProt Q8AAK6, W198G) (Q8AAK6 26-864 W198G limits assumed): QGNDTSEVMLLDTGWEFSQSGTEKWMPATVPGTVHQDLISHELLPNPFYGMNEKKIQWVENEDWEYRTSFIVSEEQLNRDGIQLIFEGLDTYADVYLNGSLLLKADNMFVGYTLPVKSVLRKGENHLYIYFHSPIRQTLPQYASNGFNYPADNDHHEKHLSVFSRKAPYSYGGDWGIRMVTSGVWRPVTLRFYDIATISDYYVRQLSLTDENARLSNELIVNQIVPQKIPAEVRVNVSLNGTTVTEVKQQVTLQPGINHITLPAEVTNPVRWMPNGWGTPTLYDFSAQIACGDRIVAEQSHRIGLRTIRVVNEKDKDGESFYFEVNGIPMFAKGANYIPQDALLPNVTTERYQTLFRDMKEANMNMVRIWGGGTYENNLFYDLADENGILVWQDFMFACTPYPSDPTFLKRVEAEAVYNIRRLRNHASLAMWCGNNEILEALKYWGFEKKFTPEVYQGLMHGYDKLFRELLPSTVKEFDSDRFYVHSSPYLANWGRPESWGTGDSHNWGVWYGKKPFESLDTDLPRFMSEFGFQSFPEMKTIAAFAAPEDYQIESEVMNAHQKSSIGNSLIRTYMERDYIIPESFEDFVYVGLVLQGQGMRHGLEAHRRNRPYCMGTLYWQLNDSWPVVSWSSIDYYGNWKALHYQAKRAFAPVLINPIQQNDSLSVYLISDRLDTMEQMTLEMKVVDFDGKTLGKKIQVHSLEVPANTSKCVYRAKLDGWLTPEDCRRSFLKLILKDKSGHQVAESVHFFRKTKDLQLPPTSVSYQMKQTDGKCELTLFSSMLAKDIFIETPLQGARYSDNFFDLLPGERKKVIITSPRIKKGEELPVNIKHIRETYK
Chain of Beta-mannosidase (Bacteroides thetaiotaomicron (strain ATCC 29148 / DSM 2079 / NCTC10582 / E50 / VPI-5482), UniProt Q8AAK6, Q646A) (Q8AAK6 26-864 Q646A limits assumed): as the sequence (Q8AAK6 26-864 W198G limits assumed) above, with G173W, Q621A counted along it
Chain of Beta-mannosidase (Bacteroides thetaiotaomicron (strain ATCC 29148 / DSM 2079 / NCTC10582 / E50 / VPI-5482), UniProt Q8AAK6, W395A) (Q8AAK6 26-864 W395A limits assumed): as the sequence (Q8AAK6 26-864 W198G limits assumed) above, with G173W, W370A counted along it
Chain of Beta-mannosidase (Bacteroides thetaiotaomicron (strain ATCC 29148 / DSM 2079 / NCTC10582 / E50 / VPI-5482), UniProt Q8AAK6, N461A) (Q8AAK6 26-864 N461A limits assumed): as the sequence (Q8AAK6 26-864 W198G limits assumed) above, with G173W, N436A counted along it
Chain of Beta-mannosidase (Bacteroides thetaiotaomicron (strain ATCC 29148 / DSM 2079 / NCTC10582 / E50 / VPI-5482), UniProt Q8AAK6, Y537A) (Q8AAK6 26-864 Y537A limits assumed): as the sequence (Q8AAK6 26-864 W198G limits assumed) above, with G173W, Y512A counted along it
Chain of Beta-mannosidase (Bacteroides thetaiotaomicron (strain ATCC 29148 / DSM 2079 / NCTC10582 / E50 / VPI-5482), UniProt Q8AAK6, W645A) (Q8AAK6 26-864 W645A limits assumed): as the sequence (Q8AAK6 26-864 W198G limits assumed) above, with G173W, W620A counted along it

Structure (SMILES): OC[C@H]1CNC[C@@H](O)[C@@H]1O [AFEGOSTAT]
- Ki [1]: 9000 µM

Structure (SMILES): OC[C@@H]1[C@@H](O)[C@H](O)[C@H](O)c2nc(C#Cc3ccccc3)cn21
- Ki [1]: 2.4 µM

Structure (SMILES): OCCC/N=C1\N[C@H](CO)[C@@H](O)[C@H](O)[C@@H]1O
- Ki [1]: 2.2 µM

Structure (SMILES): OC[C@H]1CNC(O)[C@@H](O)[C@@H]1O (some centres undefined)
- Ki (Beta-mannosidase [2]): 1.11 µM
- Ki (Beta-mannosidase [3]): 19.2 µM
- Ki (Beta-mannosidase [4]): 788 µM
- Ki (Beta-mannosidase [5]): 14 µM
- Ki (Beta-mannosidase [6]): 641 µM
- Ki (Beta-mannosidase [7]): 40.8 µM

Structure (SMILES): OC[C@@H]1[C@@H](O)[C@H](O)[C@H](O)c2nc(CNc3ccccc3)cn21
- Ki (Beta-mannosidase [2]): 68.1 µM
- Ki (Beta-mannosidase [3]): 1.54 µM
- Ki (Beta-mannosidase [4]): 58.5 µM
- Ki (Beta-mannosidase [5]): 0.311 µM
- Ki (Beta-mannosidase [6]): 7.28 µM
- Ki (Beta-mannosidase [7]): 46.6 µM

Structure (SMILES): OC[C@@H]1[C@@H](O)[C@H](O)[C@H](O)c2nc(COc3ccccc3)cn21
- Ki (Beta-mannosidase [2]): 245 µM
- Ki (Beta-mannosidase [3]): 2.65 µM
- Ki (Beta-mannosidase [4]): 356 µM
- Ki (Beta-mannosidase [5]): 0.494 µM
- Ki [1]: 0.401 µM
- Ki (Beta-mannosidase [6]): 19.1 µM
- Ki (Beta-mannosidase [7]): 284 µM

Structure (SMILES): NCCCC/N=C1\N[C@H](CO)[C@@H](O)[C@H](O)[C@H]1O
- Ki [1]: 22 µM

Structure (SMILES): OC[C@H]1C[C@@H]2NC[C@]1(O)[C@H](O)[C@@H]2O
- Ki [1]: 500 µM

Structure (SMILES): OC[C@H]1N/C(=N/O)[C@H](O)[C@@H](O)[C@@H]1O
- Ki [1]: 2000 µM

Structure (SMILES): OC[C@H]1NC[C@H](O)[C@@H](O)[C@@H]1O [DUVOGLUSTAT]
- Ki [1]: 14000 µM

Structure (SMILES): OC[C@@H]1[C@@H](O)[C@H](O)[C@H](O)c2nc(CCc3ccccc3)cn21
- Ki (Beta-mannosidase [2]): 324 µM
- Ki (Beta-mannosidase [3]): 0.71 µM
- Ki (Beta-mannosidase [4]): 14.2 µM
- Ki (Beta-mannosidase [5]): 0.245 µM
- Ki [1]: 0.057 µM
- Ki (Beta-mannosidase [6]): 3.19 µM
- Ki (Beta-mannosidase [7]): 47 µM

Structure (SMILES): CCC/N=C1\N[C@H](CO)[C@@H](O)[C@H](O)[C@@H]1O
- Ki (Beta-mannosidase [2]): 5700 µM
- Ki (Beta-mannosidase [3]): 84 µM
- Ki (Beta-mannosidase [4]): 10500 µM
- Ki (Beta-mannosidase [5]): 71.2 µM
- Ki [1]: 1.9 µM
- Ki (Beta-mannosidase [6]): 34.8 µM
- Ki (Beta-mannosidase [7]): 1180 µM

Structure (SMILES): O[C@H]1[C@H](O)[C@@H](O)CN2CC[C@H](O)[C@H]12 [CASTANOSPERMINE]
- Ki [1]: 23000 µM

Structure (SMILES): OC[C@H]1C[C@H]2[C@@H](O)[C@@H](O)[C@@]1(O)CN2Cc1ccccc1
- Ki (Beta-mannosidase [2]): 14400 µM
- Ki (Beta-mannosidase [3]): 233 µM
- Ki (Beta-mannosidase [4]): 5690 µM
- Ki (Beta-mannosidase [5]): 121 µM
- Ki (Beta-mannosidase [6]): 3750 µM
- Ki (Beta-mannosidase [7]): 2850 µM

Structure (SMILES): NCCC/N=C1\N[C@H](CO)[C@@H](O)[C@H](O)[C@@H]1O
- Ki [1]: 2.1 µM

Structure (SMILES): CC(C)O[C@@H]1O[C@]2(CO)CC[C@]1(O)[C@@H](O)[C@@H]2O
- Ki [1]: > 400000 µM

Structure (SMILES): OC[C@@H]1[C@@H](O)[C@H](O)[C@H](O)c2nnnn21
- Ki [8]: 0.17 µM
- Ki [1]: 1000 µM

Structure (SMILES): CCCCN1C[C@H](O)[C@@H](O)[C@H](O)[C@H]1CO
- Ki [1]: 6000 µM

Structure (SMILES): O[C@@H]1[C@@H](O)[C@H](O)[C@@]2(O)CC[C@H]1N2
- Ki [1]: 11000 µM

Structure (SMILES): OC[C@H]1ONC[C@@H](O)[C@@H]1O [TETRAHYDROOXAZINE]
- Ki [1]: 20000 µM
